Values of other authors in article PMC8450225 (Bioorganic & Medicinal Chemistry, 2021).
Like-named read-outs stand apart in the source and are kept apart here. Primed or numbered codes have the meaning given here. Bz′ = not defined here

How the values were obtained:
HuH-7 cells = conditions: 1 µM, three days of incubation on HuH-7 cells, Alamar Blue
dengue serotype 2 = conditions: at 1 µM concentration, HuH-7 and K562 cell lines
DENV NS2B-NS3 pro = conditions: 50 µM substrate concentration and 50 µM compound concentration
WNV NS2B-NS3 pro = conditions: 50 µM substrate concentration and 25 µM compound concentration
DENV2 pro [1] = tested on: DENV2 pro
DENV2 [2] = conditions: DENV2 viral replication assay
DENV2 pro [3] = tested on: DENV2 pro; remark: listed apart in the source
DENV 1–4 pro = conditions: range over DENV 1–4 pro
DENV2 [4] = conditions: DENV2 replication inhibition, BHK21 cells
DENV2 pro [5] = tested on: DENV2 pro; remark: listed apart in the source
DENV2 [6] = conditions: antiviral activity against DENV2
DENV2 pro [7] = tested on: DENV2 pro; remark: listed apart in the source
NS2B-NS3 pro = conditions: read-out: Ki (Reported)
DENV2 pro [8] = tested on: DENV2 pro; remark: listed apart in the source
DENV = conditions: at 100 µM

Molecule: O=C1c2c(O)ccc([N+](=O)[O-])c2C(=O)c2c([N+](=O)[O-])ccc(O)c21 [ARDP0006]
- cytotoxicity (HuH-7 cells): non-cytotoxic
- reduction of dengue viral titer (dengue serotype 2): > 1 log PFU/mL

Molecule: CN(C)C(=O)COC(=O)Cc1ccc(OC(=O)c2ccc(NC(=N)N)cc2)cc1 [Camostat]
- Percentage inhibition of NS2B-NS3 pro, DENV (DENV NS2B-NS3 pro): 19.6%
- Percentage inhibition of NS2B-NS3 pro, WNV (WNV NS2B-NS3 pro): 12.6%

Molecule: CC(=O)O[C@H]1CC(C)(C)C(=C=C/C(C)=C/C=C/C=C/C=C(C)/C=C2C=C(/C=C/[C@@]34O[C@]3(C)C[C@@H](O)CC4(C)C)C(=O)O/2)[C@](C)(O)C1 [Compound 35, peridinin]
- EC50 (DENV2 pro [1]): 8.5 ± 0.41 µM

Molecule: O=C(Nc1nc2cc(O)c(O)cc2s1)c1ccccc1Sc1ccc(C(F)(F)F)cc1 [Compound 38]
- EC50 (DENV2 [2]): > 3 µM

Molecule: O=C(Nc1nc2cc(O)c(O)cc2s1)c1ccccc1Oc1ccc2cc(O)ccc2c1 [Compound 39]
- IC50 (DENV2 pro [3]): 4.2 ± 0.44 µM

Molecule: COc1cc2nc(NC(=O)c3ccccc3Sc3ccc(C(F)(F)F)cc3)sc2cc1OC [Compound 40]
- IC50 (DENV2 pro [3]): inactive

Molecule: Cc1ccc(C2=NC(=O)/C(=C/c3cc(O)c(O)c(Br)c3)S2)cc1 [Compound 42]
- IC50 (DENV 1–4 pro): 2.94 to 4.06 µM
- EC50 (DENV2 [4]): 6.9 ± 0.6 µM

Molecule: Cc1ccc(C(=O)c2cc(O)c(O)c([N+](=O)[O-])c2)cc1 [Compound 43]
- IC50 (DENV 1–4 pro): 0.64 to 1.15 µM
- EC50 (DENV2 [4]): 2.29 µM

Molecule: O=C(OC[C@H]1O[C@@H](OC(=O)c2cc(O)c(O)c(OC(=O)c3cc(O)c(O)c(O)c3)c2)[C@H](OC(=O)c2cc(O)c(O)c(OC(=O)c3cc(O)c(O)c(O)c3)c2)[C@@H](OC(=O)c2cc(O)c(O)c(OC(=O)c3cc(O)c(O)c(O)c3)c2)[C@@H]1OC(=O)c1cc(O)c(O)c(OC(=O)c2cc(O)c(O)c(O)c2)c1)c1cc(O)c(O)c(OC(=O)c2cc(O)c(O)c(O)c2)c1 [Compound 44]
- IC50 (DENV 1–4 pro): 0.13 to 0.77 µM

Molecule: CCc1ccc(NS(=O)(=O)c2ccc(N3C(=O)c4ccccc4C3=O)cc2)cc1 [Compound 46]
- IC50 (DENV2 pro [5]): 48.2 µM

Molecule: CCCCC1C(C(=O)N(C)OC)C(c2ccccc2)CCN1C(=O)OC(C)(C)C (stereo not shown) [Compound 51]
- EC50 (DENV2 [6]): 2.4 µM

Molecule: Cc1cc(O)c(S(=O)(=O)O)cc1Cc1cc(S(=O)(=O)O)c(O)c(Cc2cc(S(=O)(=O)O)c(O)cc2C)c1C [Compound 60]
- IC50 (DENV2 pro [7]): IC50 = 0.48 μg/mL

Molecule: Ac-RTSKKR-NH2
- Ki (NS2B-NS3 pro): 12.1 µM

Molecule: BZ-Ala-Lys-Arg-Arg-H ({Bz′}-AKRR-aldehyde; also: C-terminal aldehyde)
- Ki (NS2B-NS3 pro): 5.3 µM

Molecule: Bz-Arg-Lys-(4-CF3-benzyl ether)-D-Phg-NH2 [Compound 7]
- IC50 (DENV2 pro [8]): 0.069 µM

Molecule: Bz-Arg-Lys-(4-benzyloxy)-D-Phg-NH2
- IC50 (DENV2 pro [8]): 0.367 µM

Molecule: Bz-Arg-Lys-Phg-NH2 [reference compound]
- IC50 (DENV2 pro [8]; starting tripeptide): 3.32 µM

Molecule: kaempferol-3-O-rutinoside [Compound 24]
- DENV inhibition (DENV): 77.7%
